Results: PMC11541474, “Toward New Therapeutics for Visceral Leishmaniasis: Efficacy and Mechanism of Action of Amides Inspired by Gibbilimbol B” (ACS Omega, 2024)

Columns and labels:
[1] = system: L. (L.) infantum promastigotes; test: mitochondrial membrane electric potential, JC-1 flow cytometry; format: cell-based, Leishmania (L.) infantum; settings: 9 at 141.5 μM, 10 at 110.1 μM, 4 h exposure
Description: Mitochondria perform several vital functions and play an essential role in maintaining cellular balance, thus making them a potential target for new drugs against Leishmania spp. Mitochondria are composed of two interconnected membranes and play crucial roles in energy production (ATP), calcium regulation, and the induction of programmed cell death among other processes.[22],[23] Prolonged changes in mitochondrial membrane potential can lead to irreversible cellular damage.[24] The mitochondrial membrane potential of L. (L.) infantum promastigotes (Figure 6) was evaluated by flow cytometry using JC-1.[25] […] The compound carbonyl cyanide m-chlorophenyl […] (CCCP) was used to induce maximum depolarization (positive control), whereas untreated parasites served as a negative control. […] Both alterations may have contributed to the observed mitochondrial dysfunction and might explain the reduction in ROS levels after treatment that was observed. […] JC-1 dye fluorescence was measured by flow cytometry (excitation and emission at 488 and 530 nm, respectively) after incubation. […] Fluorescence is reported as the quotient of channels BL2/BL1.**: p = 0.0001. […] Fluorescence was measured with excitation and emission filters at 488 and 530 nm (BL-1)/574 nm (BL-2), respectively. […]

[2] = in vitro mammalian toxicity against NCTC cells; format: cell-based; settings: 50% cytotoxic concentration, read-out: Cc50 Nctc (μm) ± SD
Method: (§1) Evaluation of in vitro mammalian toxicity against NCTC cells was performed as previously described.[40] The selectivity index was determined using the following equation: CC50 against NCTC cells/EC50 against amastigotes.[44] The CC50 and EC50 values were calculated using sigmoidal dose–response curves using Graph Pad Prism 5.0 software. One-way ANOVA testing with Tukey’s multiple comparison tests were used for evaluation of the statistical significance (p-value) of differences between the samples, which were tested in duplicate and all assays were repeated at least twice.

[3] = system: L. (L.) infantum promastigotes; test: acidocalcisome alterations, acridine orange; format: cell-based, Leishmania (L.) infantum; settings: 9 at 141.5 μM (20 min), 10 at 110.1 μM (significant from 60 min onward)
Description: Acidocalcisomes are intracellular organelles that are characterized by acidity and high calcium concentrations due to the proton and calcium pumps.[33] In trypanosomatids, these organelles are rich in short-chain polyphosphates and occupy a small proportion (1 to 2%) of each cell’s volume.[34] In these parasites, the acidocalcisomes are responsible for capturing and storing calcium in large quantities, which is essential for cellular functioning.[35] In our study, we investigated possible changes resulting from treatment with compounds in acidocalcisomes, especially concerning intracellular calcium. Acridine orange was used as a fluorescent probe to evaluate changes in the acidocalcisomes of L. (L.) infantum promastigotes. Alkalinization of these organelles results in the release of the probe, altering the fluorescence.[36] […] These effects were compared with those of the positive (nigericin) and negative (untreated parasites) controls. Figure 8 Acidocalcisome alkalization in L. (L.) infantum treated with compounds 9 (141.5 μM - A) or 10 (110.1 μM - B). […] Fluorescence is represented as a percentage of the fluorescence in the positive control with nigericin at 20 min (100%). ***p = 0.003, **p = 0.0021, **p = 0.05. […] The fluorescence was measured in a spectrofluorimeter with excitation an emission at […], respectively. […]

[4] = system: L. (L.) infantum intracellular amastigotes; test: ex-vivo assay using intracellular amastigotes of L. (L.) infantum; format: cell-based, Leishmania (L.) infantum; settings: for S.I. amastigote (selectivity index): CC50 against NCTC cells/EC50 against amastigotes; for EC50: Leishmania infantum, L. (L.) infantum intracellular amastigotes, read-out: Ec50 Amastigote (μm) ± SD
Method: as §1, with “activity” for “mammalian toxicity”, “promastigote and amastigote forms of L. (L.) infantum” for “NCTC cells”, “reported assays.[40]−[43]” for “described.[40] The selectivity index was determined using the following equation: CC50 against NCTC cells/EC50 against amastigotes.[44]”

[5] = system: L. (L.) infantum promastigotes; test: in vitro activity against promastigote forms of L. (L.) infantum; format: cell-based, Leishmania (L.) infantum; settings: Leishmania infantum; L. (L.) infantum promastigotes; read-out: Ec50 Promastigote (μm) ± SD
Method: as §1, with “activity” for “mammalian toxicity”, “promastigote and amastigote forms of L. (L.) infantum” for “NCTC cells”, “reported assays.[40]−[43]” for “described.[40] The selectivity index was determined using the following equation: CC50 against NCTC cells/EC50 against amastigotes.[44]”

Row | Compound | mitochondrial membrane potential (JC-1) compared with untreated promastigotes [1] | CC50 [2] [µM] | effect on acidocalcisomes (acridine orange fluorescence) [3] | S.I. amastigote (selectivity index) [4] | EC50 [4] [µM] | EC50 [5] [µM]
1 | CCCCC(CC)CNC(=O)c1ccc(Cl)cc1 (stereo not drawn) [Compound 9, N-(2-Ethylhexyl)-4-chlorobenzamide] | significant depolarization of the mitochondrial membrane | > 200 | alkalinization of the acidocalcisomes | >15.7 | 12.7 ± 4.9 | 41.9 ± 2.1
2 | CCCCC(CC)CNC(=O)c1ccc([N+](=O)[O-])cc1 (stereo not drawn) [Compound 10, N-(2-Ethylhexyl)-4-nitrobenzamide] | not statistically significant | > 200 | progressive and continuous acidification of these organelles | >16.4 | 12.2 ± 7.2 | 44.3 ± 0.4
